Converted amounts (≈) assume the structure as drawn. Where two headings read alike, the source gives them in different places.
Legend:
[1] = tested on: M. smegmatis (MSMG; MC2155); experiment: MIC by microdilution method in 7H9 broth; type: cell-based; settings: MSMG MC^2155, 72 hr
[2] = tested on: M. abscessus (MAB; ATCC 700869); experiment: MIC by microdilution method in 7H9 broth; type: cell-based; settings: Mycobacteroides abscessus, ATCC700869; MAB 700869; read-out: MIC
[3] = tested on: M. kansaii (MKN; ATCC12478 & 35775); experiment: MIC by microdilution method in 7H9 broth; type: cell-based, M. kansasii; settings: Mycobacterium kansasii, read-out: MIC
[4] = tested on: MTB-H37Rv; experiment: Post-antibiotic effect (PAE); type: cell-based, Mycobacterium tuberculosis; settings: 4 μg/ml, 2 hr of exposure
Method: PAE of SQ641. PAE of SQ641 was determined as described (Chan et al. Antimicrob. Agents Chemother., 2004, 48(1), 340-343). At the end of incubation, suspensions were diluted 1/25, and 0.1 ml was injected into each of triplicate BACTEC vials: drug dilution was 1000-fold in the BACTEC vials. Drug carryover controls (to ascertain absence of any carryover drug) consisting of the same MTB suspension as in the test and similar drug dilutions were mixed immediately, diluted 1/25, and 0.1 ml was injected into BACTEC vials. BACTEC vials were incubated at 37° C. and read in a BACTEC TB-460 reader every 24 hr until the cumulative GI in the control reached 999. PAE was calculated from the formula PAE=T−C, where T is the time required for the drug-exposed organisms to reach a cumulative GI of 100 and C is the time required for the controls to reach a cumulative GI of 100.
PAE determines the time required for the organisms to recover following exposure to an antimicrobial agent for a short duration. PAE activities of both SQ641 and INH, each at 4 μg/ml, were investigated with MTB-H37Rv. Following 2 hr of exposure to drugs, the PAE of INH was 17 hr as compared to 55 hr for SQ641. The PAE of SQ641 was over 3 times that of INH.

[5] = tested on: M. smegmatis; experiment: Synergy by checkerboard titration (microdilution); type: cell-based; settings: M. smegmatis
[6] = tested on: MTB-pSMT1 luciferase reporter strain; experiment: Activity against slowly replicating (hypoxic) MTB; type: cell-based; settings: Mycobacterium tuberculosis
[7] = tested on: MTB inside macrophages; experiment: Intracellular activity of DMSO-solubilized drug in MTB infected macrophages; type: cell-based, Mycobacterium tuberculosis; settings: for Mean RLU at Day 7: Day 0 RLU 443, Control Day 7 4251
[8] = tested on: MTB in J774A.1 cells; experiment: Intracellular activity of SQ641 with efflux pump blockers; type: cell-based, Mycobacterium tuberculosis; settings: INH 0.25 μg/ml
[9] = tested on: MTB in J774 cells; experiment: Intracellular activity of amino acid conjugates; type: cell-based, Mycobacterium tuberculosis; settings: 0.125 μg/ml; day 0 RLU 775, Control day 7 31700
Method: The amino acid conjugates were tested at concentrations of 4 mg/mL and 8 mg/mL compared with a control and isoniazid (INH).
The intracellular activity against MTB by capuramycin amino acid derivatives was tested. Cells J774 were infected with MTB and treated for 7 days with the amino acid derivative. The mean Relative Light Unites (RLU), an estimation of bacterial viability, was measured as described in Snewin et al., Infect. Immun., 1999, 67(9), 4586-4593).

[10] = tested on: MTB in macrophages; type: cell-based, Mycobacterium tuberculosis; settings: INH 0.125 μg/ml; day 0 RLU 1397, Control day 7 9075
[11] = tested on: intracellular MTB (MTBp-SMT1) in J774A.1 macrophages; experiment: Intracellular activity of SQ641-TPGS micelles; type: cell-based, Mycobacterium tuberculosis
[12] = tested on: MTB; type: in vivo, mouse; settings: PO, 25 mg/kg, 2 weeks treatment
[13] = biological target: translocase I (Escherichia coli, UniProt P0A6W3); experiment: IC50 against translocase I; type: biochemical
[14] = tested on: Mycobacterium tuberculosis (MTB); experiment: MIC by BACTEC radiometric method; type: cell-based
Method: Determination of MIC. MIC of drugs for laboratory and clinical strains of Mycobacterium tuberculosis (MTB) was determined by BACTEC radiometric method as described by Heifets (1991), “Antituberculosis Drugs: Antimicrobial Activity in vitro, Drug Susceptibility in the Chemotherapy of Microbacterial Infections, Boca Raton, Fla., CRC Press and Luna-Herrera et al., Antimicrob. Agents and Chemother. 1995, 39(2), 440-444. […] The minimal inhibitory concentration (MIC) was defined as the lowest concentrations of drug that caused GI equal to or less than that of the 1/100 dilution growth control. Capuramycin analogues SQ641, SQ922 and SQ997 were tested at concentrations ranging from […].

[15] = tested on: M. avium complex (MAC); experiment: MIC by microdilution method in 7H9 broth; type: cell-based; settings: Mycobacterium avium; for MIC: read-out: MIC
[16] = tested on: MSMG and MTB (H37Rv); experiment: Minimum bactericidal concentration (MBC), MBC/MIC ratio; type: cell-based, Mycobacterium tuberculosis; M. smegmatis
[17] = tested on: MTB cultures; experiment: Induction of morphological changes and bacterial disintegration; type: cell-based, Mycobacterium tuberculosis
Source text: Induction of morphological changes and bacterial disintegration. […] Tubercle bacilli exposed to CM analogues were typically club-shaped, with deeply stained swollen ends (see Reddy et al. Antimicrob. Agents Chemother., 2008, 52(2), 719-721).

[18] = tested on: MTB; experiment: In vivo efficacy in mouse model of chronic TB disease (lung CFU); settings: mice treated for 3 wk, starting 3 wk after infection, gav, ip, iv
Method: In vivo activity against MTB. In vivo efficacy of CM analogues was investigated in a mouse model of chronic TB disease (FIG. 2). Three wk after infection, mice were treated for 3 wk with the drugs by gavage (gav), intraperitoneal injection (ip), intravenous injection (iv), or intranasal (in) routes. Efficacy was analyzed by determining Colony-Forming Units (CFU) in lungs. […] Each achieved a decrease of 1-log10 lung CFU compared to the late control [LC] CFU by at least one route, which varied for each drug.

[19] = 4-day IV injections at 500 mg/kg/day
[20] = Mycolicibacterium smegmatis, MC2155|MC^2155, read-out: MIC
[21] = ATCC 12478 / ATCC 35775, MKN ATCC35775

translocase I, sequence (P0A6W3 whole entry): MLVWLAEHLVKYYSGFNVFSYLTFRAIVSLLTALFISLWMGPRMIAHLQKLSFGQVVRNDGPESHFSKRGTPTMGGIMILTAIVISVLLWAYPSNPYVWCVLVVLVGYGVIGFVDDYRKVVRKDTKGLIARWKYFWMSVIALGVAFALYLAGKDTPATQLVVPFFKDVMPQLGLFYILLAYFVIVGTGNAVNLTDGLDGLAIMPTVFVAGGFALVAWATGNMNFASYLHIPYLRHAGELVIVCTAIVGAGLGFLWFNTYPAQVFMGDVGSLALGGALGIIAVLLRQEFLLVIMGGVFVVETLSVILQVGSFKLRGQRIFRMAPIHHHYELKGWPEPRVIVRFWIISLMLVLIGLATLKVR

SMILES: NNC(=O)c1ccncc1 [INH, isoniazid, reference compound]
- MIC [1, 20]: 8 µg/mL (≈ 58.3 µM)
- MIC [2]: > 32 µg/mL
- MIC [3, 21]: 1 µg/mL (≈ 7.29 µM)
- MIC ([3]; MKN ATCC12478): 2 µg/mL (≈ 14.6 µM)
- PAE (post-antibiotic effect) [4]: 17 h
- MIC Combination ([5]; combination SQ641 + INH): 1.0 µg/mL
- MIC ([5]; Mycolicibacterium smegmatis, drug alone): 8 µg/mL
- MIC [6]: 0.062 µg/mL (≈ 0.452 µM)
- MIC ([6]; Hypoxic, […]): 0.125 µg/mL (≈ 0.911 µM)
- Mean RLU at Day 7 ([7]; 0.25 μg/ml (2 X MIC)): 11 RLU
- Mean RLU at Day 7 ([8]; Table 13, Day 0 RLU 425, Control Day 7 6283): 127 RLU
- Mean RLU at Day 7 ([8]; Table 14, Day 0 RLU 811, Control Day 7 3004): 20 RLU
- Mean RLU on day 7 [9]: 131 RLU
- Mean RLU on day 7 [10]: 434 RLU
- Mean RLU at Day 7 ([11]; Expt 1, one day drug exposure, 0.5 μg/ml, Day 0 RLU 104, CONTROL Day 7 906): 8 RLU
- Mean RLU at Day 7 ([11]; Expt 2, four days drug exposure, 0.25 μg/ml, Day 0 RLU 205, CONTROL Day 7 491): 1 RLU
- Lung CFU ± SD ([12]; Control 3.8 ± 1.9 × 10^8): 1.9 ± 0.8 × 10^7 CFU
- Lung Log CFU ([12]; Control 8.58): 7.28 Log CFU

SMILES: CO[C@H]1[C@@H](O)[C@H](n2ccc(=O)[nH]c2=O)O[C@@H]1[C@@H](O[C@H]1OC(C(=O)Nc2ccc(F)c(F)c2)=C[C@H](O)[C@@H]1O)C(N)=O [SQ922]
- IC50 against translocase I [13]: 0.009 µg/mL (≈ 0.0158 µM)
- MIC ([14]; H37RV, MTB strain H37Rv): 2 µg/mL (≈ 3.51 µM)
- MIC90 ([14]; MTB): 8 µg/mL (≈ 14 µM)
- MIC ([14]; MTB strain 16): 8 µg/mL (≈ 14 µM)
- MIC ([14]; MTB strain 113): 2 µg/mL (≈ 3.51 µM)
- MIC ([14]; MTB strain 158): 2 µg/mL (≈ 3.51 µM)
- MIC ([14]; MTB strain 606): 4 µg/mL (≈ 7.01 µM)
- MIC ([14]; MTB strain 847): 4 µg/mL (≈ 7.01 µM)
- MIC ([14]; MTB strain 1351): 2 µg/mL (≈ 3.51 µM)
- MIC ([14]; MTB strain 1407): 2 µg/mL (≈ 3.51 µM)
- MIC ([14]; MTB strain 1498): 4 µg/mL (≈ 7.01 µM)
- MIC ([14]; MTB strain 1665): 4 µg/mL (≈ 7.01 µM)
- MIC ([14]; MTB strain 1703): 8 µg/mL (≈ 14 µM)
- MIC ([14]; MTB strain 1760): 8 µg/mL (≈ 14 µM)
- MIC ([14]; MTB strain 1782): 8 µg/mL (≈ 14 µM)
- MIC ([14]; MTB strain 1901): 4 µg/mL (≈ 7.01 µM)
- MIC ([14]; MTB strain 1921): 4 µg/mL (≈ 7.01 µM)
- MIC ([14]; MTB strain 2224): 4 µg/mL (≈ 7.01 µM)
- MIC ([14]; MTB strain 2554): 4 µg/mL (≈ 7.01 µM)
- MIC ([14]; MTB strain 2693): 4 µg/mL (≈ 7.01 µM)
- MIC ([14]; MTB strain 8266): 2 µg/mL (≈ 3.51 µM)
- MIC ([14]; MTB strain 8642): 2 µg/mL (≈ 3.51 µM)
- MIC [1]: 2 µg/mL (≈ 3.51 µM)
- MIC [1, 20]: 2 µg/mL (≈ 3.51 µM)
- MIC [2]: 16 µg/mL (≈ 28 µM)
- MIC [3, 21]: 1 µg/mL (≈ 1.75 µM)
- MIC ([3]; MKN ATCC12478): 16 µg/mL (≈ 28 µM)
- MIC ([15]; MAC strain 100): 4 µg/mL (≈ 7.01 µM)
- MIC ([15]; MAC strain 101): 1 µg/mL (≈ 1.75 µM)
- MIC ([15]; MAC strain 104): 4 µg/mL (≈ 7.01 µM)
- MIC ([15]; MAC strain 109): 0.5 µg/mL (≈ 0.876 µM)
- MIC ([15]; MAC strain A5): 2 µg/mL (≈ 3.51 µM)
- MIC ([15]; MAC strain JSH1): 16 µg/mL (≈ 28 µM)
- MIC ([15]; MAC strain NIH C1-1): > 32 µg/mL
- MIC ([15]; MAC strain NIH C1-2): 1 µg/mL (≈ 1.75 µM)
- MIC ([15]; MAC strain NIH C1-3): 8 µg/mL (≈ 14 µM)
- MIC ([15]; MAC strain NIH C1-4): 2 µg/mL (≈ 3.51 µM)
- MIC90 ([15]; MAC isolates, value in square brackets, read-out: MIC90): 16 µg/mL (≈ 28 µM)
- MBC/MIC ratio [16]: 1
- Bacterial disintegration / clearance of MTB cultures ([17]; MTB cultures): rapid bacterial disintegration
- Turbidity of MTB cultures ([17]; within 2 days of exposure): marked fall in the turbidity
- Mean RLU at Day 7 ([7]; 2 μg/ml): 1164 RLU
- Mean RLU at Day 7 ([7]; 4 μg/ml): 1080 RLU
- Mean RLU at Day 7 ([7]; 8 μg/ml): 1111 RLU
- Mean RLU at Day 7 ([7]; 16 μg/ml): 496 RLU
- Mean RLU at Day 7 ([7]; 32 μg/ml): 311 RLU
- Mean RLU at Day 7 ([7]; 64 μg/ml): 134 RLU
- Intracellular activity (FIG. 1) ([7]; 1× and 2× MIC): showed intracellular activities
- Routes by which replication of MTB in lungs was prevented (vs early control) [18]: most routes
- Toxicity [19]: No toxicity

— patent US20090281054A1, “COMPOSITIONS AND METHODS COMPRISING CAPURAMYCIN ANALOGUES” (priority 2008, published 2009)
